Results reported in patent US9670173B2, “Dicarboxylic acid compound” (DAIICHI SANKYO COMPANY, LIMITED, priority 2013, dated 2017).

System: male SD rats
Assay: Rat 33P phosphate oral challenge test (intestinal phosphate absorption suppression test)
Type: in vivo
Conditions: fasted, 30 mg/kg forcible oral administration, 33P phosphate solution given 30 min later, serum radioactivity AUC0-60min versus control group
Method: (Test Example) Rat ^33P Phosphate Oral Challenge Test (Intestinal Phosphate Absorption Suppression Test)
Using male SD rats (5-7 week old) that had been fasted on the previous day, the compound described in Examples was suspended or dissolved in a solvent such as 0.5% methyl cellulose (3-6 mg/mL), and the thus obtained solution was administered to each rat at a dose of 30 mg/kg by a forcible oral administration. On the other hand, regarding a control group, the solvent was administered to each rat at a dose of 5 mL/kg. Thirty minutes after the administration, a ^33P phosphate solution (8.3 mM NaH2PO4, 0.35 MBq/mL) was administered to the rats at a dose of 7.2 mL/kg by a forcible oral administration. Then, 15, 30, 60, and 120 minutes after the administration, blood was collected from the jugular vein of each rat under anesthesia with isoflurane. The radioactivity in 50 μL of serum was measured using a liquid scintillation counter, and the AUC0-60min was then calculated from the radioactivity value. The obtained value was defined as an amount of phosphate absorbed. The phosphate absorption-inhibiting activity of the compound was calculated according to the following expression. Phosphate absorption-inhibiting activity (%)=[[…]the amount of phosphate absorbed of the control group]×100

SMILES	Phosphorus absorption-inhibiting activity (%)
CCN([C@H]1CC[C@H](C(=O)[O-])CC1)S(=O)(=O)c1cccc(C(=O)Nc2ccc(N3CCCC3)cc2C(=O)Nc2ccc(CCc3ccc(C(=O)[O-])cc3)cc2)c1.[K+].[K+] [Example 10, Dipotassium 4-[2-(4-{[2-({3-[(trans-4-carboxylatocyclohexyl)(ethyl)sulfamoyl]benzoyl}amino)-5-(pyrrolidin-1-yl)benzoyl]amino}phenyl)ethyl]benzoate]	53
CCN([C@H]1CC[C@H](C(=O)[O-])CC1)S(=O)(=O)c1cccc(C(=O)Nc2ccc(OCC3CC3)cc2C(=O)Nc2ccc(CCc3ccc(C(=O)[O-])cc3)cc2)c1.[K+].[K+] [Example 15, Dipotassium 4-[2-(4-{[2-({3-[(trans-4-carboxylatocyclohexyl)(ethyl)sulfamoyl]benzoyl}amino)-5-(cyclopropylmethoxy)benzoyl]amino}phenyl)ethyl]benzoate]	82
O=C([O-])c1ccc(CCc2ccc(NC(=O)c3cc(N4CCCCC4)ccc3NC(=O)c3cccc(S(=O)(=O)N(C4CC4)[C@H]4CC[C@H](C(=O)[O-])CC4)c3)cc2)cc1.[K+].[K+] [Example 27, Dipotassium 4-[2-(4-{[2-({3-[(trans-4-carboxylatocyclohexyl)(cyclopropyl)sulfamoyl]benzoyl}amino)-5-(piperidin-1-yl)benzoyl]amino}phenyl)ethyl]benzoate]	57
CCN(CC)c1ccc(NC(=O)c2cccc(S(=O)(=O)N(CC)[C@H]3CC[C@H](C(=O)O)CC3)c2)c(C(=O)Nc2ccc(CCc3ccc(C(=O)O)cc3)cc2)c1 [Example 14, Dipotassium 4-[2-(4-{[2-({3-[(trans-4-carboxylatocyclohexyl)(ethyl)sulfamoyl]benzoyl}amino)-5-(diethylamino)benzoyl]amino}phenyl)ethyl]benzoate]	76
CCN([C@H]1CC[C@@H](C(=O)O)CC1)S(=O)(=O)c1cccc(C(=O)Nc2ccc(N3CCCCC3)cc2C(=O)Nc2ccc(CCc3ccc(C(=O)O)cc3)cc2)c1 [Example 26, Dipotassium 4-[2-(4-{[2-({3-[(cis-4-carboxylatocyclohexyl)(ethyl)sulfamoyl]benzoyl}amino)-5-(piperidin-1-yl)benzoyl]amino}phenyl)ethyl]benzoate]	60
CCN(CC)c1ccc(NC(=O)c2cccc(S(=O)(=O)N(CC)[C@H]3CC[C@H](C(=O)[O-])CC3)c2)c(C(=O)Nc2ccc(CCc3ccc(C(=O)[O-])cc3)cc2)c1.[Na+].[Na+] [Example 29, Disodium 4-[2-(4-{[2-({3-[(trans-4-carboxylatocyclohexyl)(ethyl)sulfamoyl]benzoyl}amino)-5-(diethylamino)benzoyl]amino}phenyl)ethyl]benzoate]	72
CCN([C@H]1CC[C@H](C(=O)O)CC1)S(=O)(=O)c1cccc(C(=O)Nc2ccc(Br)cc2C(=O)Nc2ccc(CCc3ccc(C(=O)O)cc3)cc2)c1 [Example 4, Dipotassium 4-[2-(4-{[5-bromo-2-({3-[(trans-4-carboxylatocyclohexyl)(ethyl)sulfamoyl]benzoyl}amino)benzoyl]amino}phenyl)ethyl]benzoate]	42
CCN([C@H]1CC[C@H](C(=O)[O-])CC1)S(=O)(=O)c1cccc(C(=O)Nc2ccc(N3CCCCC3)cc2C(=O)Nc2ccc(CCc3ccc(C(=O)[O-])cc3)cc2)c1.[Na+].[Na+] [Example 28, Disodium 4-[2-(4-{[2-({3-[(trans-4-carboxylatocyclohexyl)(ethyl)sulfamoyl]benzoyl}amino)-5-(piperidin-1-yl)benzoyl]amino}phenyl)ethyl]benzoate]	60
CCN([C@H]1CC[C@H](C(=O)O)CC1)S(=O)(=O)c1cccc(C(=O)Nc2ccc(N3CCCCC3)cc2C(=O)Nc2ccc(CCc3ccc(C(=O)O)cc3)cc2)c1 [Example 12, Dipotassium 4-[2-(4-{[2-({3-[(trans-4-carboxylatocyclohexyl)(ethyl)sulfamoyl]benzoyl}amino)-5-(piperidin-1-yl)benzoyl]amino}phenyl)ethyl]benzoate]	79
CCN([C@H]1CC[C@H](C(=O)O)CC1)S(=O)(=O)c1cccc(C(=O)Nc2ccc(OCC3CC3)cc2C(=O)Nc2ccc(CCc3ccc(C(=O)O)cc3)cc2)c1 [Example 30, Disodium 4-[2-(4-{[2-({3-[(trans-4-carboxylatocyclohexyl)(ethyl)sulfamoyl]benzoyl}amino)-5-(cyclopropylmethoxy)benzoyl]amino}phenyl)ethyl]benzoate]	69
